Experimental data reported in patent US20060063938A1, “Compounds to treat hiv infection and aids” (priority 2001, published 2006).
Values joined by “and” are separate entries in the source; they are usually repeats but may differ in a detail not shown here. Equal values may be shown once. “Also recorded” adds a separate entry of the source. Read-outs that look alike come from different tables or passages of the source.

Columns and labels:
HIV-1 [1] = experiment: microbe, parasite or virus in culture; assay type: cell-based; details: for IC50: read-out: 50% Inhibitory Conc. (IC50)
HIV-1 integrase = HIV-1 integrase (Human immunodeficiency virus type 1 group M subtype B, UniProt P04585); experiment: In vitro HIV-1 integrase assay (3′-processing and strand transfer) with 21-mer U5 LTR oligonucleotide; assay type: biochemical
[2] = tested on: replication competent HIV-1; experiment: Inhibition of replication competent HIV-1 in H9 cells, p24 antigen ELISA; assay type: cell-based; details: 25 μM B compound, 15 days
Procedure: FIG. 6. Determination of inhibition of replication competent HIV-1 by B compound. HIV-1 infection was carried out in the presence of 25 μM B compound, 100 nM AZT, or in the absence of any drugs. Uninfected H9 culture was used as a negative control. […] Each time point of each culture was evaluated in duplicate.
Inhibition of replication competent HIV-1 by B compound was evaluated at 25 μM concentration. 293T cells were transfected with pNL4-3, a plasmid that encodes full HIV-1 genome. Virus harvested from the transfected cells was used to infect H9 target cells. […] In addition, H9 infected cells were cultured in the presence of 100 nM AZT as a control.
H9 T-lymphoid cells (ATCC) were maintained in the presence of RPMI 1640 Medium (Cellgro), 20% fetal calf serum (HyClone Laboratories), penicillin (50 U/ml; Gibco) and streptomycin (50 μg/ml; Gibco), 2 μg/ml Polybrene (Sigma). […] After 4 hours of infection, H9 cells were washed, resuspended in 2 ml of cell culture medium containing an appropriate drug and maintained in 35-mm-diameter dish. Cultures were fed every 3 days by removing 1 ml of cell culture suspension and replacing with equivalent amount of fresh medium containing an appropriate drug.

293T cells = experiment: Cell proliferation inhibition (XTT) cell toxicity assay; assay type: cell-based
Procedure: To ensure that inhibition of luciferase activity in the presence of the compounds was indeed due to inhibition of HIV-1 infection and not due to the toxicity of these compounds to the target cells, we performed a cell toxicity assay in the presence of the same concentrations of compounds that were used for IC50 determination (FIG. 5).
Cell proliferation inhibition assay. The effects of inhibitors on cell toxicity were determined by using Cell Proliferation Kit II (XTT) (Roche Molecular Biochemicals). Target cells (293T) were plated at a density of 1×10^3 per well of 96-well plate. Twenty-four hours later cells were treated with an inhibitor for 36 hours. After inhibitor was removed, cells were incubated for additional 48 hours and then were stained with 50 μL of the XTT labeling mix per well (Roche Molecular Biochemicals). Spectrophotometrical absorbance of the samples was measured 4 hours after addition of the labeling mix at wavelengths of 450 nm with a reference point at 700 nm in a 96-well plate reader.

HIV-1 [3] = details: read-out: IC50 reported previously; Hazuda et al. 2000; cited from earlier work
[4] = Human immunodeficiency virus 1, HEK-293T
[5] = 3′-processing step of integration reaction, read-out: IC50 3′-Processing
[6] = strand transfer step of integration reaction, read-out: IC50 Strand transfer

SMILES: [N-]=[N+]=NCc1cc(CN=[N+]=[N-])cc(C(=O)/C=C(\O)C(=O)O)c1 [Compound A, 4-(3,5-bis-azidomethyl-phenyl)-2-hydroxy-4-oxo-but-2-enoic acid]
- Luciferase Activity Relative to No Drug Control (Avg ± S.E.) (HIV-1 [1]): 5 ± 6%
- IC50 (HIV-1 [1]; [4]): 1.6 µM
- IC50 (HIV-1 integrase; [5]): > 100 µM
- IC50 (HIV-1 integrase; [6]): 2 µM and 2.8 µM

SMILES: [N-]=[N+]=NCc1cccc(C(=O)C=C(O)C(=O)O)c1 [Compound B, 4-(3-azidomethyl-phenyl)-2-hydroxy-4-oxo-but-2-enoic acid]
- Luciferase Activity Relative to No Drug Control (Avg ± S.E.) (HIV-1 [1]): 15 ± 7%
- IC50 (HIV-1 [1]; [4]): 0.5 µM
- HIV-1 replication (p24 antigen) in infected H9 culture [2]: no significant amounts of HIV-1 replication was detected; also recorded: strongly inhibited replication competent HIV-1
- IC50 (HIV-1 integrase; [5]): > 100 µM
- IC50 (HIV-1 integrase; [6]): 1.53 ± 0.27 µM

SMILES: [N-]=[N+]=NCc1ccc(C(=O)C=C(O)C(=O)O)cc1CN=[N+]=[N-] [Compound C]
- Luciferase Activity Relative to No Drug Control (Avg ± S.E.) (HIV-1 [1]): 36 ± 7%
- IC50 (HIV-1 [1]): 19 µM
- IC50 (HIV-1 integrase; [5]): > 100 µM
- IC50 (HIV-1 integrase; strand transfer step of integration reaction, listed as 4, read-out: IC50 Strand transfer): 0.26 µM and 0.15 µM

SMILES: [N-]=[N+]=Nc1cccc(C(=O)C=C(O)C(=O)O)c1 [Compound D, 4-(3-azido-phenyl)-2-hydroxy-4-oxo-but-2-enoic acid]
- Luciferase Activity Relative to No Drug Control (Avg ± S.E.) (HIV-1 [1]): 137 ± 12%
- concentration giving 50% inhibition of cell proliferation (293T cells): approximately 19 μM
- IC50 (HIV-1 integrase; [5]): > 100 µM
- IC50 (HIV-1 integrase; [6]): 5.3 µM and 5.2 µM

SMILES: Cc1cc(C)cc(C(=O)C=C(O)C(=O)O)c1 [Compound E]
- Luciferase Activity Relative to No Drug Control (Avg ± S.E.) (HIV-1 [1]): 99 ± 14%
- antiviral activity in single cycle assay (HIV-1 [1]): did not show antiviral activity; also recorded: showed no antiviral activity
- IC50 (HIV-1 integrase; [5]): > 100 µM
- IC50 (HIV-1 integrase; strand transfer step of integration reaction, listed as 15, read-out: IC50 Strand transfer): 9 µM and 11 µM

SMILES: O=C(O)C(O)=CC(=O)c1ccc(Oc2ccccc2)cc1 [Compound F]
- Luciferase Activity Relative to No Drug Control (Avg ± S.E.) (HIV-1 [1]): 261 ± 5%
- IC50 (HIV-1 integrase; [5]): > 100 µM
- IC50 (HIV-1 integrase; strand transfer step of integration reaction, listed as 16, read-out: IC50 Strand transfer): 7.8 µM and 15 µM

SMILES: O=C(C=Cc1ccc(O)c(O)c1)Nc1cccc(C(=O)C=C(O)C(=O)O)c1 [Compound G]
- Luciferase Activity Relative to No Drug Control (Avg ± S.E.) (HIV-1 [1]): 24 ± 8%
- IC50 (HIV-1 [1]): 2.2 µM
- IC50 (HIV-1 integrase; [5]): 9 µM
- IC50 (HIV-1 integrase; [6]): 4.7 µM

SMILES: O=C(O)C(O)=CC(=O)c1cccc(OCc2ccccc2)c1 [Compound H]
- Luciferase Activity Relative to No Drug Control (Avg ± S.E.) (HIV-1 [1]): 14 ± 3%
- IC50 (HIV-1 [1]): 0.6 µM
- IC50 (HIV-1 integrase; 3′-processing step of integration reaction, listed as 18, read-out: IC50 3′-Processing): 65 µM and 100 µM
- IC50 (HIV-1 integrase; [6]): 0.35 ± 0.13 µM

SMILES: O=C(O)C(O)=CC(=O)c1cccc(C(=O)c2ccccc2)c1 [Compound I]
- Luciferase Activity Relative to No Drug Control (Avg ± S.E.) (HIV-1 [1]): 19 ± 2%
- IC50 (HIV-1 integrase; [5]): > 100 µM
- IC50 (HIV-1 integrase; strand transfer step of integration reaction, listed as 19, read-out: IC50 Strand transfer): 2.7 µM and 2.1 µM

SMILES: O=C(C=C(O)c1nnn[nH]1)c1c[nH]c2ccccc12 [Compound P4, reference compound]
- Luciferase Activity Relative to No Drug Control (Avg ± S.E.) (HIV-1 [1]): 116 ± 27%
- IC50 (HIV-1 integrase; [5]): > 100 µM
- IC50 (HIV-1 integrase; strand transfer step of integration reaction, listed as 6, read-out: IC50 Strand transfer): 1.9 µM and 2 µM

SMILES: O=C(O)C(O)=CC(=O)c1cc(OCc2ccccc2)cc(OCc2ccccc2)c1 [Compound P10, reference compound]
- Luciferase Activity Relative to No Drug Control (Avg ± S.E.) (HIV-1 [1]): 7% and 7 ± 2%
- IC50 (HIV-1 [1]): 2.3 µM
- IC50 (HIV-1 integrase; [5]): > 1000 µM
- effect on 3′-processing step (HIV-1 integrase; concentrations up to the millimolar range): unaffected
- IC50 for the strand transfer reaction (HIV-1 integrase; strand transfer): in the micromolar range
- IC50 (HIV-1 integrase; [6]): 1.03 ± 0.25 µM
- IC50 (HIV-1 [3]): 2.5 µM

SMILES: O=C(C=C(O)c1nnn[nH]1)c1c[nH]c2ccc(F)cc12 [Compound P18, reference compound]
- Luciferase Activity Relative to No Drug Control (Avg ± S.E.) (HIV-1 [1]): 59 ± 13%
- IC50 (HIV-1 integrase; 3′-processing step of integration reaction, listed as 9, read-out: IC50 3′-Processing): 79 µM
- IC50 (HIV-1 integrase; strand transfer step of integration reaction, listed as 9, read-out: IC50 Strand transfer): 1.8 µM

SMILES: COc1ccc(Cn2nnnc2C(O)=CC(=O)c2c[nH]c3ccc(Cl)cc23)cc1 [Compound P20, reference compound]
- Luciferase Activity Relative to No Drug Control (Avg ± S.E.) (HIV-1 [1]): 133 ± 35%
- IC50 (HIV-1 integrase; 3′-processing step of integration reaction, listed as 10, read-out: IC50 3′-Processing): 7.2 µM and 7.5 µM
- IC50 (HIV-1 integrase; [6]): 1.28 ± 0.38 µM

SMILES: COc1ccc(Cn2nnnc2C(O)=CC(=O)c2c[nH]c3ccc(F)cc23)cc1 [Compound P22, reference compound]
- Luciferase Activity Relative to No Drug Control (Avg ± S.E.) (HIV-1 [1]): 98 ± 28%
- IC50 (HIV-1 integrase; 3′-processing step of integration reaction, listed as 11, read-out: IC50 3′-Processing): 8.1 µM and 5.5 µM
- IC50 (HIV-1 integrase; strand transfer step of integration reaction, listed as 11, read-out: IC50 Strand transfer): 2.2 µM and 1.6 µM

SMILES: COc1ccc(Cn2nnnc2C(O)=CC(=O)c2c[nH]c3ccccc23)cc1 [Compound P23, reference compound]
- Luciferase Activity Relative to No Drug Control (Avg ± S.E.) (HIV-1 [1]): 104 ± 25%
- IC50 (HIV-1 integrase; [5]): > 100 µM
- IC50 (HIV-1 integrase; [6]): 6.9 µM

SMILES: O=C(C=C(O)c1nnn[nH]1)c1c[nH]c2ccc(F)cc12 [Compound P31, reference compound]
- Luciferase Activity Relative to No Drug Control (Avg ± S.E.) (HIV-1 [1]): 61 ± 17%
- IC50 (HIV-1 integrase; 3′-processing step of integration reaction, listed as 14, read-out: IC50 3′-Processing): 82 µM
- IC50 (HIV-1 integrase; strand transfer step of integration reaction, listed as 14, read-out: IC50 Strand transfer): 6.56 ± 0.81 µM
